Reference: ChEMBL document CHEMBL4354822, “Ligand-Based Design of Nondimethylphenyl-Diarylpyrimidines with Improved Metabolic Stability, Safety, and Oral Pharmacokinetic Profiles” (J Med Chem, 2019)

Experiments:
[1] = test system: Human immunodeficiency virus 1; assay: Antiviral activity against HIV1 3B infected in human MT4 cells incubated assessed as reduction in virus-induced cytopathic effect for 5 days by MTT assay; assay type: functional, organism-based; details: Human immunodeficiency virus 1, 3B, MT4, 120 h
MT4 = assay: Cytotoxicity against human MT4 cells assessed as reduction in cell viability incubated for 5 days by MTT assay; assay type: functional; details: MT4, 120 h
[2] = Selectivity index, ratio of CC50 for human MT4 cells to EC50 for antiviral activity against HIV1 3B infected in human MT4 cells incubated for 5 days by MTT assay; assay type: toxicity, cell-based; details: MT4 cells (uninfected for CC50; HIV-1 3B infected for EC50)
[3] = test system: Human immunodeficiency virus 1; assay: Ratio of EC50 for rilpivirine to EC50 for test compound for antiviral activity against HIV1 harboring reverse transcriptase L100I mutant infected in human MT4 cells assessed as reduction in virus-induced cytopathic effect incubated for 5 days by MTT assay; assay type: functional
[4] = test system: Human immunodeficiency virus 1; assay: Ratio of EC50 for efavirenz to EC50 for test compound for antiviral activity against HIV1 harboring reverse transcriptase L100I mutant infected in human MT4 cells assessed as reduction in virus-induced cytopathic effect incubated for 5 days by MTT assay; assay type: functional
[5] = test system: Human immunodeficiency virus 1; assay: Ratio of EC50 for etravirine to EC50 for test compound for antiviral activity against HIV1 harboring reverse transcriptase L100I mutant infected in human MT4 cells assessed as reduction in virus-induced cytopathic effect incubated for 5 days by MTT assay; assay type: functional
[6] = test system: Human immunodeficiency virus 1; assay: Antiviral activity against HIV1 harboring reverse transcriptase L100I mutant infected in human MT4 cells assessed as reduction in virus-induced cytopathic effect incubated for 5 days by MTT assay; assay type: functional, organism-based; details: Human immunodeficiency virus 1, MT4, 120 h
[7] = test system: Human immunodeficiency virus 1; assay: Antiviral activity against HIV1 harboring reverse transcriptase K103N mutant infected in human MT4 cells assessed as reduction in virus-induced cytopathic effect incubated for 5 days by MTT assay; assay type: functional, organism-based; details: Human immunodeficiency virus 1, MT4, 120 h
[8] = test system: Human immunodeficiency virus 1; assay: Antiviral activity against HIV1 harboring reverse transcriptase Y181C mutant infected in human MT4 cells assessed as reduction in virus-induced cytopathic effect incubated for 5 days by MTT assay; assay type: functional, organism-based; details: Human immunodeficiency virus 1, MT4, 120 h
[9] = test system: Human immunodeficiency virus 1; assay: Antiviral activity against HIV1 harboring reverse transcriptase Y188L mutant infected in human MT4 cells assessed as reduction in virus-induced cytopathic effect incubated for 5 days by MTT assay; assay type: functional, organism-based; details: Human immunodeficiency virus 1, MT4, 120 h
[10] = test system: Human immunodeficiency virus 1; assay: Antiviral activity against HIV1 harboring reverse transcriptase E138K mutant infected in human MT4 cells assessed as reduction in virus-induced cytopathic effect incubated for 5 days by MTT assay; assay type: functional, organism-based; details: Human immunodeficiency virus 1, MT4, 120 h
[11] = target: Human immunodeficiency virus type 1 reverse transcriptase (Human immunodeficiency virus 1, UniProt Q72547); assay: Inhibition of recombinant wild type HIV1 reverse transcriptase p66/p51 incubated for 40 mins by picogreen dye-based spectrofluorometric analysis
[12] = target: Human immunodeficiency virus type 1 reverse transcriptase (Human immunodeficiency virus 1) (UniProt Q72547); assay: Ratio of IC50 for nevirapine to IC50 for test compound for recombinant wild type HIV1 reverse transcriptase p66/p51
[13] = Oral bioavailability in Sprague-Dawley rat at 1 mg/kg measured after 24 hrs by LCMS analysis; assay type: ADME, organism-based; details: in vivo

SMILES | EC50 [1] [nM] | CC50 (MT4) [nM] | selectivity ratio at 120 h [2] | Ratio EC50 [3] | Ratio EC50 [4] | Ratio EC50 [5] | EC50 [6] [nM] | EC50 [7] [nM] | EC50 [8] [nM] | EC50 [9] [nM] | EC50 [10] [nM] | IC50 [11] [nM] | Ratio IC50 [12] | bioavailability [13] [%]
Cc1cc(-c2ccc(C#N)cc2)cc(Cl)c1Oc1ccnc(Nc2ccc(C#N)cc2)n1 | 3.4 | > 286000 | > 86200 | 2 - 568 | 2 - 568 | 2 - 568 | < 3.7 | < 4.3 | 10.5 | 200 | 6.6 | 10.8 | 21 to 109 | 
Cc1cc(/C=C/C#N)cc(C)c1Nc1ccnc(Nc2ccc(C#N)cc2)n1.Cl [RILPIVIRINE HYDROCHLORIDE] |  |  |  |  |  |  |  |  |  |  |  |  |  | 32
